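Grown in 96-well plates, cells were treated for 48 hours with each compound at five concentrations. Insufficient inhibition: endpoint recorded as highest concentration tested. GI50 marks 50% less growth.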 The source made the active and inactive calls. No stated cut-off is given here; in the data, active = GI50 up to about 1.1 µM and inactive = higher. Bounds are passed on as bounds.

Among the test systems are IGROV-1; RXF 393; SNB-19; NCI-H522; UO-31; K562; SK-OV-3; SK-MEL-5; SK-MEL-28; TK-10; KM12; U-251; ACHN; SF-268; OVCAR-4; UACC-62; RPMI-8226.
Test in all cases: inhibition of tumour cell growth, NCI panel, 48 h

Regarding `N#CC1CC2(C(=O)C1=O)c1ccccc1-c1ccccc12` (centres undefined), the GI50 was > 100 µM (inactive) with IGROV-1; > 100 µM (inactive) with RXF 393; > 100 µM (inactive) with SNB-19; > 100 µM (inactive) in the assay with NCI-H522; > 100 µM (inactive) in the assay on UO-31; 86.1 µM (inactive) in the assay with K562. In addition, the GI50 with SK-OV-3, in the assay on SK-MEL-5, in the assay with SK-MEL-28, with TK-10, in the assay with KM12 and with U-251 was > 100 µM (inactive) in each case. The GI50 in the assay on ACHN, in the assay on SF-268, with OVCAR-4 and in the assay on UACC-62 was > 100 µM (inactive) in each case.
With `COC1(C)C(=O)N2C1N(C(=O)OC(C)(C)C)CC2(C)C` (centres undefined), the GI50 with IGROV-1, in the assay with RXF 393, in the assay on SNB-19, in the assay with NCI-H522, with UO-31 and in the assay with K562 was > 100 µM (inactive) throughout. In addition, the GI50 in the assay on SK-OV-3, in the assay on SK-MEL-5, in the assay on SK-MEL-28, with TK-10, in the assay with KM12 and in the assay on U-251 was > 100 µM (inactive) each time. The GI50 in the assay with ACHN was > 100 µM (inactive); in the assay on SF-268, > 100 µM (inactive); in the assay on RPMI-8226, 44.8 µM (inactive); with OVCAR-4, > 100 µM (inactive); with UACC-62, > 100 µM (inactive).
For `COc1ccc(Nc2nc3c(N)cc(C(F)(F)F)cc3nc2-c2ccccc2)cc1`, the GI50 in the assay on IGROV-1 is 52 µM (inactive); in the assay with RXF 393 it was 27.2 µM (inactive); in the assay with SNB-19, 71.6 µM (inactive); in the assay with NCI-H522 it was 44.3 µM (inactive); in the assay on UO-31, > 100 µM (inactive); with K562 it was > 100 µM (inactive). Further, the GI50 was 83 µM (inactive) in the assay on SK-OV-3; 57.1 µM (inactive) in the assay on SK-MEL-5; > 100 µM (inactive) in the assay on SK-MEL-28; > 100 µM (inactive) with TK-10; 83 µM (inactive) with KM12; 83.2 µM (inactive) with U-251. In addition, the GI50 with ACHN is > 100 µM (inactive); in the assay with SF-268, 75.7 µM (inactive); in the assay on OVCAR-4, 37.2 µM (inactive); in the assay on UACC-62, > 100 µM (inactive).
Take `O=C(COC(=O)c1cccc2c(=O)c3ccccc3[nH]c12)Nc1ccc(Cl)cc1`: the GI50 in the assay with IGROV-1 is 70.6 µM (inactive); in the assay on RXF 393, 16.8 µM (inactive); in the assay on SNB-19 it was 35 µM (inactive); in the assay on NCI-H522 it was 23.9 µM (inactive); in the assay with UO-31 it was 9.64 µM (inactive); in the assay with K562 it was > 100 µM (inactive). Besides, the GI50 in the assay with SK-OV-3 was 82.8 µM (inactive); with SK-MEL-5, 44.2 µM (inactive); in the assay on SK-MEL-28, > 100 µM (inactive); in the assay on TK-10, 13.1 µM (inactive); in the assay with KM12, 28.9 µM (inactive); with U-251 it was 24.9 µM (inactive). Further, the GI50 with ACHN is 32.8 µM (inactive); in the assay with SF-268 it was > 100 µM (inactive); in the assay on OVCAR-4 it was 95.9 µM (inactive); with UACC-62, 54.1 µM (inactive).
In the case of `N#CCC(=O)N1CCCCCCC1`, the GI50 in the assay on IGROV-1, in the assay with RXF 393, in the assay on SNB-19, in the assay with UO-31, with K562 and in the assay with SK-OV-3 was > 100 µM (inactive) throughout. Further, the GI50 was > 100 µM (inactive) in the assay on SK-MEL-5; > 100 µM (inactive) in the assay with SK-MEL-28; > 100 µM (inactive) in the assay on TK-10; 76.4 µM (inactive) with KM12; > 100 µM (inactive) in the assay with U-251; > 100 µM (inactive) in the assay on ACHN. Further, the GI50 in the assay on SF-268, in the assay with OVCAR-4 and in the assay with UACC-62 was > 100 µM (inactive) in each case.
As to `CC(=O)Oc1ccccc1C(=O)C1c2cccc(O)c2C(=O)c2c(O)cccc21`, the GI50 is 0.986 µM (active) in the assay on IGROV-1; 0.423 µM (active) in the assay with RXF 393; 0.416 µM (active) in the assay with SNB-19; 0.479 µM (active) in the assay on NCI-H522; 0.741 µM (active) in the assay with UO-31; 0.366 µM (active) in the assay with K562. The GI50 in the assay on SK-OV-3 is 0.543 µM (active); with SK-MEL-5 it was 1.05 µM (active); with SK-MEL-28, 1.64 µM (inactive); in the assay on TK-10, 3.65 µM (inactive); in the assay on KM12, 0.421 µM (active); in the assay with U-251, 0.494 µM (active). For the same compound, the GI50 in the assay with ACHN is 0.771 µM (active); in the assay on SF-268 it was 0.927 µM (active); with RPMI-8226, 0.374 µM (active); in the assay on OVCAR-4 it was 0.995 µM (active); with UACC-62 it was 0.794 µM (active).
Consider `COc1ccc(/C=N/N=C(\N)NO)cc1O`, for which the GI50 in the assay with IGROV-1 was 84.1 µM (inactive); with RXF 393, 41.7 µM (inactive); with SNB-19 it was > 100 µM (inactive); with NCI-H522, > 10 µM (inactive); with UO-31, 45 µM (inactive); in the assay with K562, 82.8 µM (inactive). Also, the GI50 with SK-OV-3 was 80.2 µM (inactive); with SK-MEL-5, 31.9 µM (inactive); in the assay with SK-MEL-28 it was 49.8 µM (inactive); with KM12, 45.8 µM (inactive); in the assay with U-251, 62.5 µM (inactive); in the assay on SF-268 it was 32 µM (inactive). Further, the GI50 with RPMI-8226 is > 100 µM (inactive); with OVCAR-4, 45.4 µM (inactive); with UACC-62, 31.1 µM (inactive).
Turning to `CCc1cccc(CC)c1NC(=O)C1=C(C)NC(C)=C(C(=O)Nc2c(CC)cccc2CC)C1c1ccc2c(c1)OCO2`, the GI50 in the assay with IGROV-1 was 18.8 µM (inactive); in the assay with SNB-19, 17.4 µM (inactive); in the assay on NCI-H522, 13.8 µM (inactive); with UO-31, 17.1 µM (inactive); in the assay with K562, 15.6 µM (inactive); with SK-OV-3, 25.8 µM (inactive). Moreover, the GI50 in the assay on SK-MEL-5 was 18.1 µM (inactive); in the assay with SK-MEL-28, 20 µM (inactive); in the assay on TK-10 it was 33.6 µM (inactive); with KM12 it was 20.4 µM (inactive); in the assay on U-251, 14 µM (inactive); in the assay on ACHN, 19.4 µM (inactive). Also, the GI50 is 18.1 µM (inactive) in the assay on SF-268, 22.5 µM (inactive) in the assay with RPMI-8226, 16.6 µM (inactive) with OVCAR-4 and 12.6 µM (inactive) in the assay on UACC-62.
For `C/C(=N/Nc1ccc([N+](=O)[O-])cc1[N+](=O)[O-])C(CC(C(=O)Nc1ccccc1C)/C(C)=N\Nc1ccc([N+](=O)[O-])cc1[N+](=O)[O-])C(=O)Nc1ccccc1C` (centres undefined), the GI50 with IGROV-1 was 15.8 µM (inactive); in the assay with RXF 393, 6.49 µM (inactive); with SNB-19, 14 µM (inactive); in the assay with NCI-H522, 0.424 µM (active); in the assay on UO-31, 11.5 µM (inactive); with K562 it was > 100 µM (inactive). In addition, the GI50 with SK-OV-3 was 30.1 µM (inactive); in the assay on SK-MEL-5 it was 17.2 µM (inactive); in the assay on SK-MEL-28, 21.9 µM (inactive); in the assay on TK-10, 17.9 µM (inactive); in the assay on KM12, 15.3 µM (inactive); with U-251, 6.12 µM (inactive). Further, the GI50 is 19.7 µM (inactive) in the assay with ACHN; 7.67 µM (inactive) in the assay on SF-268; > 35 µM (inactive) with RPMI-8226; 5.74 µM (inactive) in the assay with OVCAR-4; 19.6 µM (inactive) in the assay on UACC-62.
Take `C=CCc1cc(-c2cc(CC=C)c(O)c(CNC)c2)cc(CNC)c1O`: the GI50 is 18 µM (inactive) with IGROV-1; 13.3 µM (inactive) in the assay with SNB-19; 14.8 µM (inactive) with NCI-H522; 12.9 µM (inactive) with UO-31; 10.4 µM (inactive) in the assay with K562; 16.1 µM (inactive) in the assay with SK-MEL-5. For the same compound, the GI50 in the assay with SK-MEL-28 was 19.5 µM (inactive); with TK-10 it was 17.7 µM (inactive); in the assay with KM12 it was 16.6 µM (inactive); in the assay on U-251, 14.9 µM (inactive); in the assay on ACHN, 17.8 µM (inactive); with SF-268 it was 16.3 µM (inactive). Also, the GI50 in the assay on RPMI-8226 is 20.7 µM (inactive); with OVCAR-4, 16.5 µM (inactive); with UACC-62, 18.1 µM (inactive).
For the compound `CCOC(=O)C(=C=Cc1cccs1)C(=O)c1ccccc1`, the GI50 in the assay with IGROV-1 was 17.3 µM (inactive); in the assay with NCI-H522, 15.1 µM (inactive); in the assay on UO-31, 14.3 µM (inactive); with K562, 37.4 µM (inactive); with SK-OV-3, 20.3 µM (inactive); with SK-MEL-5 it was 3.38 µM (inactive). Also, the GI50 in the assay on SK-MEL-28 is 14.8 µM (inactive); in the assay on TK-10 it was 15 µM (inactive); in the assay with KM12, 12.3 µM (inactive); in the assay with U-251 it was 16.9 µM (inactive); in the assay with ACHN, 18.8 µM (inactive); with SF-268, 15.9 µM (inactive). Also, the GI50 with RPMI-8226 was 18.3 µM (inactive); in the assay with OVCAR-4 it was 17 µM (inactive); in the assay with UACC-62 it was 15.5 µM (inactive).
As to `O=C(NC12CC3CC(CC(F)(C3)C1)C2)c1ccccc1`, the GI50 in the assay with IGROV-1 was > 100 µM (inactive); in the assay on RXF 393, > 100 µM (inactive); with SNB-19, > 100 µM (inactive); in the assay with NCI-H522, > 100 µM (inactive); in the assay with UO-31, 59.2 µM (inactive); in the assay with K562 it was > 100 µM (inactive). Besides, the GI50 in the assay with SK-OV-3, with SK-MEL-28, in the assay with TK-10, with KM12, with U-251 and with ACHN was > 100 µM (inactive) in each case. Further, the GI50 in the assay with RPMI-8226 and with UACC-62 was > 100 µM (inactive) in each case.

(Values after ChEMBL document CHEMBL1201862, “PubChem BioAssay data set” (2004).)
